Source: US10500169B2, “Supression of IgE production by compounds derived from traditional chinese medicine” (Sean N. Parker Foundation, priority 2014, dated 2019)

Assays:
[1] = tested on: U266 cells; experiment: IgE production by U266 myeloma cells, ELISA of supernatants; format: cell-based, human
Method: The IgE producing human U266 myeloma cell line (American Type Culture Collection; Rockville, Md.) has been used for screening pharmaceutical agents for IgE inhibitory effects, and thus this cell line was used to test the potential IgE inhibitory effects of herb extracts and purified compounds. Cells were cultured at 37° C. under 5% CO2 in complete media containing RPMI 1640 medium supplemented, 10% FBS, 1 mM sodium pyruvate, 1×10^-5 M β-ME and 0.5% penicillin-streptomycin. Cells were grown at an initial concentration of 2×10^5 cells/mL. FAHF-2 and B-FAHF-2, individual herb extracts and isolated compounds at different concentrations were added at day 0. Supernatants were harvested after 6 days culture, and IgE levels were determined by using an ELISA Kit (Mabtech Inc, OH). In each experiment, we run duplicate ELISA. In vitro experiments were repeated at least 3 times.
Human U266 myeloma cells (American Type Culture Collection; Rockville, Md.) were cultured in complete medium (RPMI 1640 medium supplemented, 10% FBS, 1 mM sodium pyruvate, 1×10^−5 M β-ME and 0.5% penicillin-streptomycin) at 37° C. under 5% CO2. Cells were grown at an initial concentration of 2×10^5 cells/mL with purpurin and alizarin from Rubia cordifolia L. at different concentrations (0.31, 0.62, 1.25, 2.5, 5 μg/mL), and with arctiin and arctigenin from Arctium lappa L. at different concentrations ([…]) for 6 days. The supernatants were harvested on day 6 for total IgE analysis using ELISA.

[2] = tested on: human PBMCs; experiment: Cell viability of human PBMC, trypan blue exclusion; format: cell-based; conditions: any dose tested
Method: Cell viability was evaluated using a trypan blue exclusion as previously described. Briefly, a 10 μl of cells suspension from each culture was mixed with equal volume of trypan blue dye. The mixture was loaded into a hemocytometer and cells were counted under a microscope. The percentage of viable cells was calculated as follows: Viable cells (%)=(total number of viable cells)/(total number of cells)×100.

[3] = tested on: B cells in Human PBMCs; experiment: Apoptosis by flow cytometry, annexin V staining of CD19 B cells in PBMCs; format: cell-based; conditions: 10 μg/ml, 2 days incubation
[4] = tested on: STAT3; experiment: RT-PCR gene expression in stimulated PBMCs: STAT3; format: cell-based, human; conditions: 10 μg/mL
Method: (§1) Quantitative real time PCR was used to detect the epsilon germline transcription. Human PBMC cells (1.5×10^6 cells/mL) were co-incubated with DMF-C1 compound (10 μg/mL) at 37° C. under 5% CO2 for 4 days. Cells were then harvested and total RNA was isolated using Trizol reagent (Gibco BRL, Rockville, Md.) following the manufacturer's instructions. The RNA concentrations were then quantified by triplicate optical density (OD) readings (Bio-Rad SmartSpect 3000; Bio-Rad, Hercules, Calif.). The reverse transcription was performed to get the cDNA using ImProm-II™ Reverse Transcriptase (Promega Corporation, Madison, Wis.) as described by the manufacturer's instructions. The RT-PCR amplification was performed using Maxima™ SYBR Green qPCR Master Mix (2×) kit (Fisher Scientific, Pittsburgh, Pa.) with epsilon germline primers or GAPDH primers. The primer sequences were listed as εGLT forward: 5′-[…]-3′; εGLT reverse: 5′-[…]-3′; GAPDH-forward: 5′-[…]-3′; GAPDH-reverse: 5′-[…]-3′; STAT3-forward: 5′-[…]-3′; STAT3-reverse: 5′-[…]-3′; T-bet-forward: 5′-[…]-3′; T-bet-reverse: 5′-[…]-3′; IFN-γ-forward: 5′-[…]-3′; IFN-γ-reverse: 5′-[…]-3′; IL-10-forward: 5′-[…]-3′; IL-10-reverse: 5′-[…]-3′. IL-5-forward. 5′-[…] TGCA-3′; IL-5-reverse: 5′-[…]-3′. All primers were synthesized by Sigma-Aldrich Corporation (St. Louis, Mo.).

[5] = tested on: T-bet; experiment: RT-PCR gene expression in stimulated PBMCs: T-bet; format: cell-based, human; conditions: 10 μg/mL
Method: as §1

[6] = tested on: Foxp3; experiment: RT-PCR gene expression in stimulated PBMCs: Foxp3; format: cell-based, human; conditions: 10 μg/mL
Method: as §1

[7] = tested on: GATA-3; experiment: RT-PCR gene expression in stimulated PBMCs: GATA-3; format: cell-based, human; conditions: 10 μg/mL
Method: as §1

[8] = tested on: IL-10; experiment: RT-PCR gene expression in stimulated PBMCs: IL-10; format: cell-based, human; conditions: 10 μg/mL
Method: as §1

[9] = tested on: CACO-2 cells; experiment: Berberine uptake by Caco-2 cells, LC-MS; format: in vitro ADME; conditions: 50 μg/mL berberine, 1 hour
Method: Experiments were performed on 24 well plates for berberine uptake assay. CACO-2 cells were seeded in each well at the concentration of 1×10^5 cells/well. Cells were then allowed to grow to confluence and differentiation for 2 weeks in culture medium (DMEM+10% FBS, high glucose and sodium pyruvate and supplemented with 1% Essential Amino Acids). On the experiment day, cells were washed three times with pre-warmed HBSS and incubated with 1 ml warm HBSS for 30 minutes.
After conditioning with HBSS, cells were incubated at 37° C. with 50 μg/mL berberine with or without 250 μg/mL of nine different herbal medicines, fruits of Prunus mume (P. mume), skin of the fruits of Zanthoxylum schinifolium (Z. schinifolium), roots of Angelica sinensis (A. sinensis), rhizome of Zingiber officinalis (Z. officinalis), twigs of Cinnamomum cassia (C. cassia), bark of Phellodendron chinensis (P. chinensis), rhizome of Coptis chinensis (C. chinensis), roots of Panax ginseng (P. ginseng) and fruiting body of Ganoderma lucidum (G. lucidum). Control wells received 0, 50, 100 and 200 μg of berberine alone.
After 1 hour, cells were washed 3 times with ice-cold HBSS and scraped in 500 μl of ice cold HBSS and centrifuged. […] 75 μL of each sample was analyzed for its berberine concentration by using LC-MS. […]
All samples were analyzed using waters LC-MS system (Waters corp. MA) for berberine detection. […]

`COc1ccc2cc3[n+](cc2c1OC)CCc1cc2c(cc1-3)OCO2` [berberine] was tested, and the inhibition at 20 µg/mL ([1]; Homo sapiens, U-266, 144 h, 20 μg/mL, 6 days) was 94.6%, the IC50 ([1]; Homo sapiens, U-266, 144 h, 6 days culture, read-out: IC50 of inhibition of IgE production by U266 cells) was 3.95 µg/mL and the “effect on IgE production by U266 cells (in words)” value ([1]; different concentrations, 6 days) was “inhibited IgE production in a dose-dependent manner”. For the same molecule, the “cell viability of human PBMC” value [2] was “not compromised”, the “annexin V stained B cells” value [3] was “about 16%” and the “mRNA expression of STAT-3” value [4] was “significantly increased”. The “mRNA expression of T-bet” value [5] was “significantly increased”, the “mRNA level of Foxp3” value [6] was “trend of increase” and the GATA-3 expression [7] was “No significant change”. The “mRNA level of IL-10” value [8] was “trend of increase” and the “Concentration of berberine in Cacao-2 cells, berberine standard alone” value [9] was 2950 ng/mL.
